Measurements as given in patent publication US20240123079A1 (Seagen Inc., priority 2021, published 2024).
Several values for one entry are separate records, joined by “and”; a condition that tells them apart may be missing. Equal entries are not always repeated.

Key:
Parameters in all cases: species or system mouse
[1] = In vivo cytokine assay, plasma of Renca tumor-bearing mice; details: for IL1β in plasma / IL12p70 in plasma / IL-6 in plasma / IL-10 in plasma / IP10 in plasma / MCP-1 in plasma / IFNγ in plasma: Renca tumor-bearing mice, 1.48 mg/kg
Experimental: (§1) Cytokines were measured in mouse plasma harvested at 3, 6, 24, or 48 hours after treatment with compounds or ADCs using a Milliplex MAP mouse cytokine/chemokine magnetic bead panel assay kit (MCYTOMAG-70k custom 11-plex kit: MCP1, MIP1α, MIP1β, TNFα, IFNγ, IL-10, IL-12p70, IL-6, IL-1β, IP10, RANTES) and analyzed using a Luminex™ MAGPIX™ Instrument System. Values that were outside of the standard curve range (<3.2 or […]) were excluded from calculation of the mean values.

CT26 cancer cells = test: CT26 tumor model, in vivo anti-tumor activity; details: CT26 tumor-bearing mice, q7dx3
Experimental: CT26 cancer cells (ATCC) were cultured in RPMI 1640 modified with 1 mM Sodium Pyruvate, 10 mM HEPES, 2.8 mL 45% Glucose (1.25 g) and supplemented with 10% fetal bovine serum and 1% Pen/Strep/Glutamine. CT26 cancer cells were implanted ([…] in 200 uL serum-free RPMI 1640) subcutaneously into Balb/c mice.

[2] = In vivo cytokine assay, plasma of CT26 tumor-bearing mice; details: 1.86 mg/kg
Experimental: as §1

With `CCn1nc(C)cc1C(=O)Nc1nc2cc(C(N)=O)cc(O)c2n1C/C=C/Cn1c(NC(=O)c2cc(C)nn2CC)nc2cc(C(N)=O)cc(OC)c21` [Compound 1, (E)-1-(4-(5-carbamoyl-2-(1-ethyl-3-methyl-1H-pyrazole-5-carboxamido)-7-hydroxy-1H-benzo[d]imidazol-1-yl)but-2-en-1-yl)-2-(1-ethyl-3-methyl-1H-pyrazole-5-carboxamido)-7-methoxy-1H-benzo[d]imidazole-5-carboxamide] the IL1β in plasma ([1]; 3 h) was 0.7 pg/mL, the IL12p70 in plasma ([1]; 3 h) was 174 pg/mL and the IL-6 in plasma ([1]; 3 h) was 95.7 pg/mL. The IL-10 in plasma ([1]; 3 h) was 48.8 pg/mL, the IP10 in plasma ([1]; 3 h) was 703 pg/mL and the MCP-1 in plasma ([1]; 3 h) was 168 pg/mL. The IFNγ in plasma ([1]; 6 h) was 0.2 pg/mL, the IL1β in plasma ([1]; 6 h) was 1.5 pg/mL and the IL12p70 in plasma ([1]; 6 h) was < 3.2 pg/mL. For the same molecule, the IL-6 in plasma ([1]; 6 h) was 6.8 pg/mL, the IL-10 in plasma ([1]; 6 h) was 0.8 pg/mL and the IP10 in plasma ([1]; 6 h) was 3390 pg/mL. The MCP-1 in plasma ([1]; 6 h) was 796 pg/mL, the IFNγ in plasma ([1]; 24 h) was < 3.2 pg/mL and the IL1β in plasma ([1]; 24 h) was 0.8 pg/mL. For the same molecule, the IL12p70 in plasma ([1]; 24 h) was 140 pg/mL, the IL-6 in plasma ([1]; 24 h) was 13.5 pg/mL and the IL-10 in plasma ([1]; 24 h) was 34.6 pg/mL. The IP10 in plasma ([1]; 24 h) was 551 pg/mL, the “systemic pro-inflammatory cytokine (IL-6 and TNF) production” value ([1]; plasma of tumor-bearing mice) was “induced very little pro-inflammatory cytokine (IL-6 and TNF) production” and the “tumor growth delay” value (CT26 cancer cells) was “minimal tumor growth delay”. For the same molecule, the “IL-6 in peripheral blood (plasma)” value ([2]; 3 h) was 622.1 and 781.4 and 1128.3, the “IP-10 in peripheral blood (plasma)” value ([2]; 3 h) was 1439.4 and 1501.7 and 1160.7 and the “MCP-1 in peripheral blood (plasma)” value ([2]; 3 h) was 73.7 and 78.6 and 110.3. For the same molecule, the “MIP1b in peripheral blood (plasma)” value ([2]; 3 h) was 297.7 and 336.8 and 224, the “MIP-1a in peripheral blood (plasma)” value ([2]; 3 h) was 3.9 and 3.2 and the “TNFa in peripheral blood (plasma)” value ([2]; 3 h) was 3.2 and 4.9 and 4.3. For the same molecule, the “IL-6 in peripheral blood (plasma)” value ([2]; 6 h) was 2652.5 and 2393.5 and 2412.7, the “IP-10 in peripheral blood (plasma)” value ([2]; 6 h) was 2610.8 and 2133.6 and 2473.4 and the “MCP-1 in peripheral blood (plasma)” value ([2]; 6 h) was 3185.3 and 2816.3 and 1634.8. The “MIP-1a in peripheral blood (plasma)” value ([2]; 6 h) was 94.6 and 93.6 and 73.9, the “TNFa in peripheral blood (plasma)” value ([2]; 6 h) was 16.9 and 16.6 and 10 and the “IL-6 in peripheral blood (plasma)” value ([2]; 24 h) was 44.5 and 31.8 and 36.5. The “IL-10 in peripheral blood (plasma)” value ([2]; 24 h) was 3.2, the “IP-10 in peripheral blood (plasma)” value ([2]; 24 h) was 1121.6 and 1025.3 and 696.2 and the “MCP-1 in peripheral blood (plasma)” value ([2]; 24 h) was 397.7 and 294.7 and 305.9. For the same molecule, the “IL-10 in peripheral blood (plasma)” value ([2]; 48 h) was 3.2 and the “IP-10 in peripheral blood (plasma)” value ([2]; 48 h) was 560.1 and 398.8 and 560.
